Experimental data from patent publication US5770595A, “Oxime substituted therapeutic compounds” (Cell Therapeutics, Inc., priority 1994, dated 1998).

How the values were obtained:
Assay type in all cases: cell-based
[1] = test system: MCF-7, Hurdlich, RAS and NIH-3T3 cells; test: cytotoxicity on several cell lines (BCECF viability); conditions: 24 hours; FIG. 13
Experimental: Each inventive compound is investigated for cytotoxicity to determine appropriate doses for biological activity assays and to prevent cytotoxic reactions in in vitro assays when characterizing activity. Cells (e.g., NIH-3T3, Ras transformed 3T3 cells, malignant melanoma LD2 cells, etc.) are added to microtiter plates and drug is added about two days after plating. Cell viability is determined using a fluorescent viability slain (e.g., 2',7'-bis-(2-carboroxyethyl)-5-(and -6)-carboxyfluorescein acetoxymethyl ester, BCECF excitation 488 nm and emission 525 nm) 24, 48 or 72 hours after addition of the drug.
1522 is not cytotoxic to several cell lines. The cells lines used were MCF-7 a human breast cancer-derived line, Hurdlich cells a human stromal derived line, RAS a codon-12 transformed malignant murine line, and NIH-3T3 a non-Ras transformed parent line of RAS. The cells were treated with various concentrations of drug, and 24 hours later, stained for viability using BCECF and analyzed for fluorescent die uptake (indicating viable cells) using a fluorescence plate reader.

[2] = test system: murine peritoneal macrophages; test: TNF-α release from LPS-stimulated murine peritoneal macrophages; conditions: 0.25 mM, LPS 10 μg/ml
Experimental: (§1) This example illustrates the ability of inventive compound no. 1521 to inhibit TNF-α release from murine peritoneal macrophages when stimulated with LPS. This assay is a model for septic shock. Macrophages (10^5) were treated with LPS at 10 μg/ml in RPMI media containing 10% fetal calf serum. Supernatants were assayed for TNF by an ELISA technique at various times following LPS stimulation. The cells were treated one hour prior to LPS stimulation with 0.25 mM of inventive compound no. 1521.

[3] = test system: murine peritoneal macrophages; test: IL-1α release from LPS-stimulated murine peritoneal macrophages; conditions: 0.25 mM, LPS 10 μg/ml
Experimental: as §1, with “IL-1α” for “TNF-α”, “IL-1α” for “TNF”, “mM” for “mM of inventive compound no.”

| SMILES | cytotoxicity (viability by BCECF) [1] | inhibition of TNF-α release [2] | inhibition of IL-1α release [3] |
| --- | --- | --- | --- |
| CON=C(C)CCCCn1c(=O)c2c(ncn2C)n(C)c1=O [Compound no. 1522] | non-toxic at therapeutic concentrations | – | – |
| CC(CCCCn1c(=O)c2c(ncn2C)n(C)c1=O)=NO [Compound no. 1521] | – | inhibited TNF release | inhibited IL-1α release |
